Test results published in ChEMBL document CHEMBL1130770, “Solid phase synthesis of benzylamine-derived sulfonamide library” (Bioorg Med Chem Lett, 1998).

target: Prothrombin (Homo sapiens, UniProt P00734); experiment: Inhibition constant was evaluated for inhibitory activity against the blood coagulant thrombin

Row | Ki [µM] | SMILES
1 | 0.6 | CC(C)N(C)C(=O)[C@H](Cc1ccc(CN)cc1)NS(=O)(=O)c1ccc2ccccc2c1
2 | 0.2 | NCc1ccc(C[C@H](NS(=O)(=O)c2ccc3ccccc3c2)C(=O)N2CCCC2)cc1
3 | 0.01 | CCCc1ccc(S(=O)(=O)N[C@@H](Cc2ccc(CN)cc2)C(=O)N(C)C2CCCC2)cc1
4 | 0.05 | CN(C(=O)[C@H](Cc1ccc(CN)cc1)NS(=O)(=O)c1ccc2ccccc2c1)C1CCCC1
5 | 15.6 | NCc1ccc(C[C@H](NS(=O)(=O)c2ccc3ccccc3c2)C(=O)N2CCC(O)CC2)cc1
6 | 31.7 | CC(C)NC(=O)[C@H](Cc1ccc(CN)cc1)NS(=O)(=O)c1ccc2ccccc2c1
7 | 97.2 | NCc1ccc(C[C@H](NS(=O)(=O)c2ccc3ccccc3c2)C(=O)NCc2ccccc2)cc1
8 | 3.06 | CN(C)C(=O)[C@H](Cc1ccc(CN)cc1)NS(=O)(=O)c1ccc2ccccc2c1
